In the supplement of paper PMC10307832:

Key:
Test in all cases: relative viability (nuclei count vs DMSO), 5 days (fraction); higher = more cells survive
[1] = compound: CCN1C(=O)C2=CC(=C(N=C2N(C1=O)C3CC3)N)C(=O)N
Method in brief: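 Five library-drug doses spaced by √10 were pinned onto vehicle-anchored 1536-well plates of lung cancer cell lines that had been kept overnight at 37 °C. Cells went 5 days without medium change, then were fixed, permeabilised and Hoechst-stained together, imaged at 4× and counted by MetaXpress. Viability is the ratio of treated-well to vehicle-well nuclei, taken as a median over plates. Plates required control CV below 25% and at least one doubling.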

[2] = compound: CCN1C(=O)C2=CC(=C(N=C2N(C1=O)C3CC3)N)C(=O)N + O=C(c1cc(Cc2n[nH]c(=O)c3ccccc23)ccc1F)N1CCN(C(=O)C2CC2)CC1 [Olaparib] (partner 8 µM)
Method in brief: (§1)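 Cells from lung cancer lines were seeded into 1536-well plates and, one day later, dosed by pin tool. Treatments were either a single drug or a fixed dose of an anchor drug with five library-drug doses (not always all listed) in √10 steps. After 5 days, nuclei were stained in a one-step fixation (final 0.05% Triton X-100, 1% formaldehyde, 1 ug/ml Hoechst) and counted on 4× images, and relative viability is the treated-to-vehicle nuclei ratio, as the median of duplicate plates.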

[3] = compound: CCN1C(=O)C2=CC(=C(N=C2N(C1=O)C3CC3)N)C(=O)N + Cc1nc(Nc2ncc(C(=O)Nc3c(C)cccc3Cl)s2)cc(N2CCN(CCO)CC2)n1 [Dasatinib] (partner 0.075 µM)
Method in brief: as §1

[4] = compound: CCN1C(=O)C2=CC(=C(N=C2N(C1=O)C3CC3)N)C(=O)N + Cc1nc(NC(=O)N2CCC[C@H]2C(N)=O)sc1-c1ccnc(C(C)(C)C(F)(F)F)c1 [Alpelisib] (partner 2 µM)
Method in brief: as §1

[5] = compound: CCN1C(=O)C2=CC(=C(N=C2N(C1=O)C3CC3)N)C(=O)N + C[C@@H](Oc1cc(-c2cnn(C3CCNCC3)c2)cnc1N)c1c(Cl)ccc(F)c1Cl [Crizotinib] (partner 1 µM)
Method in brief: as §1

Row | Cell Line | relative viability ([1]; 0.253 µM) | relative viability ([1]; 0.8 µM) | relative viability ([1]; 2.53 µM) | relative viability ([1]; 8 µM) | relative viability ([2]; first compound 0.253 µM) | relative viability ([2]; first compound 0.8 µM) | relative viability ([2]; first compound 2.53 µM) | relative viability ([2]; first compound 8 µM) | relative viability ([3]; first compound 0.253 µM) | relative viability ([3]; first compound 0.8 µM) | relative viability ([3]; first compound 2.53 µM) | relative viability ([3]; first compound 8 µM) | relative viability ([4]; first compound 0.253 µM) | relative viability ([4]; first compound 0.8 µM) | relative viability ([4]; first compound 2.53 µM) | relative viability ([4]; first compound 8 µM) | relative viability ([5]; first compound 0.253 µM) | relative viability ([5]; first compound 0.8 µM) | relative viability ([5]; first compound 2.53 µM) | relative viability ([5]; first compound 8 µM)
1 | 201T | 0.993 | 0.948 | 1.04 | 0.964 | 0.87 | 0.869 | 0.832 | 0.901 | 0.559 | 0.518 | 0.574 | 0.496 | 1.04 | 1.02 | 1.04 | 1.04 | 1.08 | 0.97 | 0.98 | 1.03
2 | A549 | 0.985 | 1.02 | 0.962 | 0.956 |  | 0.305 | 0.302 | 0.392 |  |  |  |  | 0.698 | 0.858 | 0.746 | 0.931 | 0.712 | 0.76 | 0.732 | 0.886
3 | A-427 | 1.02 | 0.991 | 1.03 | 1.03 | 0.763 | 0.792 | 0.703 | 0.744 | 0.729 | 0.825 | 0.744 | 0.779 | 1.02 | 1.04 | 1.04 | 1.09 | 0.986 | 1.08 | 0.774 | 1.06
4 | ABC-1 | 0.986 | 0.686 | 1 | 0.841 | 0.92 |  | 1.05 | 0.742 | 0.559 | 0.473 | 0.565 | 0.56 | 1.23 | 0.751 | 1.11 | 0.969 | 1.21 | 1.04 | 1.18 | 1.32
5 | BEN | 0.952 | 0.885 | 1.11 | 1.02 | 1.16 | 1.09 | 1.01 | 1.08 | 0.368 | 0.267 | 0.313 | 0.356 | 1.07 | 1.02 | 0.929 | 1.01 | 0.713 | 0.865 | 0.903 | 1.07
6 | CAL-12T | 1 | 0.964 | 1.02 | 1.02 | 0.734 | 0.717 | 0.682 | 0.658 | 0.466 | 0.377 | 0.452 | 0.462 | 1.07 | 1.07 | 0.964 | 1.21 | 0.549 | 0.595 | 0.702 | 0.783
7 | COR-L23 | 1.01 | 0.962 | 1.04 | 1.12 | 0.413 | 0.319 | 0.19 | 0.398 | 0.573 | 0.562 | 0.456 | 0.531 | 0.775 | 0.714 | 0.816 | 0.944 | 0.594 | 0.635 | 0.567 | 0.695
8 | COR-L 105 | 0.979 | 0.841 | 0.875 | 0.963 | 0.728 | 0.768 | 0.779 | 0.677 | 0.358 | 0.261 | 0.264 | 0.304 | 1.08 | 0.959 | 0.833 | 0.853 | 0.915 | 0.726 | 0.732 | 0.995
9 | ChaGo-K-1 | 1.12 | 0.949 | 0.973 | 0.924 | 0.442 | 0.437 | 0.404 | 0.434 | 0.6 | 0.664 | 0.614 | 0.527 |  |  |  |  | 1.14 | 1.13 | 1.14 | 1.41
10 | EKVX | 1.01 | 0.955 | 0.959 | 0.913 | 0.849 | 0.972 | 0.792 | 0.682 | 0.496 | 0.479 | 0.461 | 0.469 | 0.975 | 0.896 | 0.821 | 0.851 | 1.07 | 1.14 | 0.837 | 1.05
11 | EMC-BAC-2 | 1.39 |  | 1.14 | 1.07 | 0.546 |  | 0.498 | 0.487 | 0.35 | 0.305 | 0.328 | 0.318 | 0.808 | 0.743 | 0.725 | 0.796 | 0.841 | 0.734 | 0.713 | 0.855
12 | EPLC-272H | 0.891 | 0.863 | 0.999 | 1.09 |  | 0.752 | 0.975 | 1.08 | 0.425 | 0.394 | 0.377 | 0.431 | 0.801 | 0.868 | 0.901 | 0.942 | 0.997 | 0.998 | 0.906 | 0.988
13 | H3255 | 0.995 | 0.906 | 1.01 | 0.929 | 0.567 | 0.556 | 0.567 | 0.633 | 0.403 | 0.444 | 0.425 | 0.347 | 0.653 | 0.609 | 0.631 | 0.624 | 0.805 | 0.936 | 0.885 | 0.965
14 | HARA | 0.975 | 0.927 | 0.947 | 0.918 | 0.897 | 0.904 | 0.915 | 0.841 | 0.321 | 0.234 | 0.233 | 0.246 | 0.817 | 0.787 | 0.79 | 0.964 | 1.1 | 1.04 | 0.946 | 1.16
